From patent US20220369688A1, “ORAL COMPOSITIONS AND RELATED METHODS FOR REDUCING THROAT IRRITATION” (NICOVENTURES TRADING LIMITED, priority 2021, published 2022)
Like-named read-outs stand apart in the source and are kept apart here.

Tests used:
[1] = cited from earlier work
[2] = organic acid, octanol/water; cited from earlier work
human buccal tissue = conditions: nicotine solution at pH=6 relative to pH 8.1; cited from earlier work
[3] = 1,000 ppm nicotine, 2 equivalents of octanoic acid (sodium octanoate), pH 6.5
Description: A pH probe was submerged in the resulting liquid and HCl (0.05 M) was added under stirring to bring the solution to pH 6.5. The flask weight was then brought up to 100 grams with RO water. […] Partitioning was performed by removing aliquots (10 mL) of each solution and placing into separate 20 ml scintillation vials. Octanol (10 ml) was added to each vial. The vials were then placed on a wrist action shaker for 20 minutes. Following agitation, the vials were allowed to separate for 30 min. and an aliquot (100 μl) of each octanol layer was removed and diluted with 900 μl octanol in 2 mL GC/MS vials.

[4] = cited from earlier work; remark: listed apart in the source
[5] = 1,000 ppm nicotine, pH 6.5

For CC(/C=C/C=C(C)/C=C/C(=O)O)=C\C=C\C=C(C)\C=C\C=C(C)\C=C\C(=O)O (stereo in doubt) [norbixin, (2E,4E,6E,8E,10E,12E,14E,16E,18E)-4,8,13,17-tetramethylicosa-2,4,6,8,10,12,14,16,18-nonaenedioic acid], the solubility in water [1] is listed as “water soluble”.

For CCCCCCCS(=O)(=O)O [1-heptanesulfonic acid], the logP [2] is listed as 0.88.

With O=C(O)c1ccccc1 [benzoic acid] the concentration in octanol (1000 ppm nicotine in unbuffered water with 1 molar equivalent of sodium benzoate, 100 μl octanol aliquot diluted in 900 μl) was 19.2 ppm and the “benzoic acid molarity in octanol in terms of nicotine mass” value (1000 ppm nicotine, 1 molar equivalent sodium benzoate) was 25.5 ppm nicotine.

For COC(=O)/C=C/C(C)=C\C=C\C(C)=C\C=C\C=C(C)\C=C\C=C(C)\C=C\C(=O)O [bixin, (2E,4E,6E,8E,10E,12E,14E,16Z,18E)-20-methoxy-4,8,13,17-tetramethyl-20-oxoicosa-2,4,6,8,10,12,14,16,18-nonaenoic acid], the solubility in water [1] is listed as “insoluble in water”.

For CC(=O)CCC(=O)O [levulinic acid], the logP [2] is listed as −0.49.

For CC(C)[C@@H]1CC[C@@H](C)C[C@H]1OC(=O)CCC(=O)O [monomenthyl succinate], the logP [2] is listed as 3.

In the case of CN1CCCC1c1cccnc1 (centres unmarked) [nicotine], the “factor by which diffusion rate is reduced” value (human buccal tissue) is listed as ~7, the “nicotine partitioned into octanol” value [3] is listed as ~67% and the “log Ka1” value ([4]; pyridine ring nitrogen) is listed as 3.41. The “log Ka2” value ([4]; pyrrolidine ring nitrogen) was 8.02, the “% nicotine in octanol” value ([5]; 10 eq. benzoic acid (sodium benzoate)) was ~52% and the “% nicotine in octanol” value ([5]; 10 eq. octanoic acid (sodium octanoate)) was ~75%.

For CCCCCCCC(=O)O [octanoic acid], the logP [2] is given as 3.05.

For O=C(O)C(O)C(O)C(=O)O (centres unmarked) [tartaric acid], the logP [2] is given as −1.9.

For ethyl benzoic acid, the logP [2] is given as 2.9.

For isopropyl benzoic acid, the logP [2] is given as 3.5.
